Assay results as given in ChEMBL document CHEMBL4251708, “Synthesis and Biological Screening of Pyrano[3,2-c]quinoline Analogues as Anti-inflammatory and Anticancer Agents” (ACS Med Chem Lett, 2018).
Active and inactive are the calls of the source. The calls are words filed in the database; no cut-off is given here.

Tests used:
THP-1 (Homo sapiens) [1] = assay: Antiinflammatory activity in human THP1 cells assessed as inhibition of IL-6 production at 10 uM relative to control; parameters: scale not given: the % may be the effect or the level left
[2] = system: MDA-MB-231 (Homo sapiens); assay: Antiproliferative activity against human MDA-MB-231 cells at 1 uM relative to control; details: mda-mb-231, 1 µM
THP-1 (Homo sapiens) [3] = assay: Antiinflammatory activity in human THP1 cells assessed as inhibition of TNF-alpha production at 10 uM relative to control; parameters: scale not given: the % may be the effect or the level left
[4] = system: MDA-MB-231 (Homo sapiens); assay: Antiproliferative activity against human MDA-MB-231 cells at 10 uM relative to control
[5] = system: MIA PaCa-2 (Homo sapiens); assay: Antiproliferative activity against human MIA PaCa-2 cells at 1 uM relative to control
ACHN (Homo sapiens) = assay: Antiproliferative activity against human ACHN cells at 1 uM relative to control
THP-1 [6] = assay: Antiinflammatory activity in PMA-differentiated human THP1 cells assessed as inhibition of LPS-induced IL-6 production at 10 uM after 24 hrs by ELISA relative to control; assay type: functional; details: THP-1, 24 h
THP-1 [7] = assay: Antiinflammatory activity in PMA-differentiated human THP1 cells assessed as inhibition of LPS-induced TNF-alpha production at 10 uM after 24 hrs by ELISA relative to control; assay type: functional; details: THP-1, 24 h
MIA PaCa-2 = assay: Antiproliferative activity against human MIAPaCa2 cells at 10 uM relative to control; assay type: functional
THP-1 [8] = assay: Antiinflammatory activity in PMA-differentiated human THP1 cells assessed as inhibition of LPS-induced TNF-alpha production at 1 uM after 24 hrs by ELISA relative to control; assay type: functional; details: THP-1, 24 h
THP-1 [9] = assay: Antiinflammatory activity in PMA-differentiated human THP1 cells assessed as inhibition of LPS-induced IL-6 production at 1 uM after 24 hrs by ELISA relative to control; assay type: functional; details: THP-1, 24 h
ACHN = assay: Antiproliferative activity against human ACHN cells after 48 hrs by propidium iodide staining based fluorometry; assay type: functional, cell-based
Calu-1 = assay: Antiproliferative activity against human Calu1 cells after 48 hrs by propidium iodide staining based fluorometry; assay type: functional, cell-based; details: Calu-1, 48 h
PBMC = assay: Antiinflammatory activity in human PBMC assessed as inhibition of LPS-induced TNF-alpha production incubated for 30 mins followed by LPS addition measured after 4.5 hrs by ELISA; assay type: functional, cell-based
THP-1 [10] = assay: Antiinflammatory activity in PMA-differentiated human THP1 cells assessed as inhibition of LPS-induced TNF-alpha production after 24 hrs by ELISA; assay type: functional, cell-based; details: THP-1, 24 h
THP-1 [11] = assay: Cytotoxicity against PMA-differentiated human THP1 cells assessed as reduction in cell viability after 4.5 hrs by MTS assay; assay type: cell-based; details: THP-1, 4.5 h
THP-1 [12] = assay: Antiinflammatory activity in PMA-differentiated human THP1 cells assessed as inhibition of LPS-induced IL-6 production after 24 hrs by ELISA; assay type: functional, cell-based; details: THP-1, 24 h
PANC-1 = assay: Antiproliferative activity against human PANC1 cells after 48 hrs by propidium iodide staining based fluorometry; assay type: functional, cell-based; details: PANC-1, 48 h
HCT-116 = assay: Antiproliferative activity against human HCT116 cells after 48 hrs by propidium iodide staining based fluorometry; assay type: functional, cell-based; details: HCT-116, 48 h
NCI-H460 = assay: Antiproliferative activity against human H460 cells after 48 hrs by propidium iodide staining based fluorometry; assay type: functional, cell-based; details: NCI-H460, 48 h

SMILES	Activity (THP-1 (Homo sapiens) [1]) [%]	Activity [2] [%]	Activity (THP-1 (Homo sapiens) [3]) [%]	Activity [4] [%]	Activity [5] [%]	Activity (ACHN (Homo sapiens)) [%]	inhibition at 10 µM (THP-1 [6]) [%]	inhibition at 10 µM (THP-1 [7]) [%]	Activity (MIA PaCa-2) [%]	inhibition at 1 µM (THP-1 [8]) [%]	inhibition at 1 µM (THP-1 [9]) [%]	IC50 (ACHN) [µM]	IC50 (Calu-1) [µM]	IC50 (THP-1 [10]) [µM]	IC50 (THP-1 [11]) [µM]	IC50 (THP-1 [12]) [µM]	IC50 (PANC-1) [µM]	IC50 (HCT-116) [µM]	IC50 (NCI-H460) [µM]	also measured
Cn1c(=O)c2c(c3ccccc31)OC(N)=C(C#N)C2c1c2ccccc2cc2ccccc12 (stereo unspecified)	0	19	0	69	40	25	10	0	66	0	0	–	–	–	–	–	–	–	–	–
Cn1c(=O)c2c(c3ccccc31)OC(N)=C(C#N)C2c1c[nH]c2ccccc12 (stereo unspecified)	–	16	0	67	18	27	8	0	77	0	0	> 20	> 20	11	6.8	1.4	> 20	> 20	> 20	inhibition (PBMC): inactive
COc1ccc(C2C(C#N)=C(N)Oc3c2c(=O)n(C)c2ccccc32)cc1OC (stereo unspecified)	43	20	0	24	40	38	23	0	50	0	0	–	–	–	–	–	–	–	–	–
COc1ccccc1C1C(C#N)=C(N)Oc2c1c(=O)n(C)c1ccccc21 (stereo unspecified)	32	22	0	18	24	37	14	0	21	0	0	–	–	–	–	–	–	–	–	–
Cn1c(=O)c2c(c3ccccc31)OC(N)=C(C#N)C2c1cccc(Cl)c1 (stereo unspecified)	74	53	44	–	63	81	74	0	38	0	0	0.1	0.5	0.5	> 10	0.2	1	0.3	0.3	IC50 (PBMC): 1.8 µM
CCOc1cc(C2C(C#N)=C(N)Oc3c2c(=O)n(C)c2ccccc32)ccc1O (stereo unspecified)	–	12	0	88	27	6	0	0	68	0	0	–	–	–	–	–	–	–	–	–
Cn1c(=O)c2c(c3ccccc31)OC(N)=C(C#N)C2c1cccc(O)c1 (stereo unspecified)	11	0	4	12	17	0	0	0	29	5	0	–	–	–	–	–	–	–	–	–
C[C@@H]1C[C@H]2[C@@H]3CCC4=CC(=O)C=C[C@]4(C)[C@@]3(F)[C@@H](O)C[C@]2(C)[C@@]1(O)C(=O)CO [DEXAMETHASONE]	–	–	–	–	–	–	–	–	–	40	58	–	–	–	–	–	–	–	–	–
COc1ccc(C2C(C#N)=C(N)Oc3c2c(=O)n(C)c2ccccc32)cc1 (stereo unspecified)	77	70	0	81	80	78	73	0	84	0	0	> 20	> 20	12.8	30	1.7	> 20	> 20	> 20	inhibition (PBMC): inactive
CN(C)c1ccc(C2C(C#N)=C(N)Oc3c2c(=O)n(C)c2ccccc32)cc1 (stereo unspecified)	0	20	0	22	34	41	10	0	31	0	0	–	–	–	–	–	–	–	–	–
CSc1ccc(C2C(C#N)=C(N)Oc3c2c(=O)n(C)c2ccccc32)cc1 (stereo unspecified)	37	0	28	10	16	0	0	0	17	0	0	–	–	–	–	–	–	–	–	–
Cn1c(=O)c2c(c3ccccc31)OC(N)=C(C#N)C2c1ccc(O)cc1 (stereo unspecified)	0	23	0	77	55	55	13	0	83	0	0	1.8	1.1	10	30	4	1.9	0.6	1.2	inhibition (PBMC): inactive
Cn1c(=O)c2c(c3ccccc31)OC(N)=C(C#N)C2c1ccccc1Cl (stereo unspecified)	0	0	12	–	26	48	0	0	69	0	0	–	–	–	–	–	–	–	–	–
